Biological target: Prostaglandin E synthase, mPGES-1 (Homo sapiens) (UniProt O14684)
Assay: Inhibition of Prostaglandin E2 synthase-1 in IL1-beta stimulated microsomal fraction of human A549 cell assessed as PGE2 level by RP-HPLC

Prostaglandin E synthase, mPGES-1 (Homo sapiens), sequence (O14684 whole entry, looked up): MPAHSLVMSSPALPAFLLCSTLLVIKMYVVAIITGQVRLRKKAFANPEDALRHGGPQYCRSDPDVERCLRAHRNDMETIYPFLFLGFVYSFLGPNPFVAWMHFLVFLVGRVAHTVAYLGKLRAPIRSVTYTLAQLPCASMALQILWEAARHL

Row | Structure (SMILES) | IC50
1 | Cc1ccccc1CCn1cc(-c2ccc(-c3ccccc3COc3cc(C(F)(F)F)ccc3Cl)cc2)nn1 [4-[2'-(2-Chloro-5-trifluoromethyl-phenoxymethyl)-biphenyl-4-yl]-1-(2-o-tolyl-ethyl)-1H-[1,2,3]triazole] | > 30 µM
2 | O=C(OCc1cn(CSc2ccccc2)nn1)c1ccccc1 [Benzoic acid 1-Phenylsulfanylmethyl-1H-[1,2,3]Triazol-4-ylmethyl Ester] | > 30 µM
3 | O=C(O)c1ccc(Cn2cc(-c3ccc(-c4ccccc4)cc3)nn2)c([N+](=O)[O-])c1 [4-(4-Biphenyl-4-yl-[1,2,3]triazol-1-ylmethyl)-3-nitro-benzoic acid] | 3.2 µM
4 | CN(C)c1cccc2c(S(=O)(=O)Nc3ccc(-c4ccc(-c5cn(CCCc6ccccc6)nn5)cc4)cc3)cccc12 [5-Dimethylamino-naphthalene-1-sulfonic acid{4'-[1-(3-phenyl-propyl)-1H-[1,2,3]triazol-4-yl]-biphenyl-4-yl}-amide] | > 30 µM
5 | Cc1ccccc1CCn1cc(-c2ccc(-c3ccccc3COc3cccc4ccccc34)cc2)nn1 [4-[2'-(Naphthalen-1-yloxymethyl)-biphenyl-4-yl]-1-(2-o-tolyl-ethyl)-1H-[1,2,3]triazole] | > 30 µM
6 | Oc1ccc(-c2ccc(-c3cn(CCCc4ccccc4)nn3)cc2)cc1 [4'-[1-(3-Phenyl-propyl)-1H-[1,2,3]triazol-4-yl]-biphenyl-4-ol] | > 30 µM
7 | Oc1cccc(-c2ccc(-c3cn(CSc4ccccc4)nn3)cc2)c1 [4'-(1-Phenylsulfanylmethyl-1H-[1,2,3]triazol-4-yl)-biphenyl-3-ol] | > 30 µM

Other lines, results leading:

Row | IC50 | Structure (SMILES)
8 | > 30 µM | FC(F)(F)c1ccc(Cl)c(OCc2ccccc2-c2ccc(-c3cn(CCCc4ccccc4)nn3)cc2)c1 [4-[2'-(2-Chloro-5-trifluoromethyl-phenoxymethyl)-biphenyl-4-yl]-1-(3-phenyl-propyl)-1H-[1,2,3]triazole]
9 | > 30 µM | c1ccc(CCCn2cc(-c3ccc(-c4ccccc4COc4cccc5ccccc45)cc3)nn2)cc1 [4-[2'-(Naphthalen-1-yloxymethyl)-biphenyl-4-yl]-1-(3-phenyl-propyl)-1H-[1,2,3]triazole]
10 | > 30 µM | O=Cc1ccc(-c2c(Cc3ccccc3)nnn2CSc2ccccc2)cc1 [4-(5-Benzyl-3-phenylsulfanylmethyl-3H-[1,2,3]triazol-4-yl)-benzaldehyde]
11 | > 30 µM | O=C(O)c1ccc(S(=O)(=O)n2cc(-c3ccc(-c4ccccc4COc4cccc5ccccc45)cc3)nn2)cc1 [4-{4-[2'-(Naphthalen-1-yloxymethyl)-biphenyl-4-yl]-1,2,3]triazole-1-sulfonyl}-benzoic acid]
12 | > 30 µM | Oc1ccc(-c2ccc(-c3cn(CSc4ccccc4)nn3)cc2)cc1 [4'-(1-Phenylsulfanylmethyl-1H-[1,2,3]triazol-4-yl)-biphenyl-4-ol]
13 | > 30 µM | c1ccc(CCCn2cc(-c3ccc(-c4ccc(Oc5ccccc5)cc4)cc3)nn2)cc1 [4-(4'-Phenoxy-biphenyl-4-yl)-1-(3-phenyl-propyl)-1H-[1,2,3]triazole]
14 | > 30 µM | Cc1ccccc1CCn1cc(-c2ccc(-c3ccc(N)cc3)cc2)nn1 [4'-[1-(2-o-Tolyl-ethyl)-1H-[1,2,3]triazol-4-yl]-biphenyl-4-ylamine]
15 | > 30 µM | c1ccc(CCCn2cc(-c3ccc(-c4cc5ccccc5c5ccccc45)cc3)nn2)cc1 [4-(4-Phenanthren-9-yl-phenyl)-1-(3-phenyl-propyl)-1H-[1,2,3]triazole]

From BindingDB's records for doi:10.1021/jm101238d (University of Salerno, 2011)
